Results taken from patent US20230331655A1, “HYDROXYN[…] AND METHODS OF USE THEREOF” (UNIVERSITY OF MARYLAND, BALTIMORE, priority 2020, published 2023).

How the values were obtained:
[1] = pharmacokinetics in plasma and brain after intraperitoneal administration (UPLC-MS/MS); assay type: in vivo, mouse; set-up: key to Brain Concentration over time, sex-dependent difference / Plasma Concentration over time, sex-dependent difference: F, female; M, male; NS, not statistically different; conditions: i.p. 5 mg/kg; for t1/2 Brain / t1/2 Plasma: terminal half-life; for Brain Concentration over time, sex-dependent difference / Plasma Concentration over time, sex-dependent difference / Plasma Total exposure (AUC), sex-dependent difference / Brain Total exposure (AUC), sex-dependent difference: female vs male mice; for Brain Concentration over time, sex-dependent difference / Plasma Concentration over time, sex-dependent difference: ANOVA, Holm-Šídák post-hoc; for Plasma Total exposure (AUC), sex-dependent difference / Brain Total exposure (AUC), sex-dependent difference: t-test; for brain concentration at 4 h post-treatment: LLOQ 5.0 ng/ml
Description: Male and female CD-1 mice (Charles Rivers Laboratories, Raleigh, NC, USA), 8-11 weeks old at the time of testing, were habituated to the University of Maryland (Baltimore, MD, USA) animal facility for at least one week prior to testing. Mice were group housed 4-5 per cage with a constant 12-hour light cycle (lights on/off at 07:00/19:00). Food and water were available ad libitum. All experiments were performed during the light phase. All animal studies were approved by the University of Maryland School of Medicine Institutional Animal Care and Use Committee and conducted in accordance with the National Institutes of Health Guide for the Care and Use of Laboratory Animals.
(2R,6R)-HNK hydrochloride, (2S,6S)-HNK hydrochloride, (2R,6S)-HNK, (2S,6R)-HNK, (2R,5R)-HNK, (2S,5S)-HNK, (2R,5S)-HNK, (2S,5R)-HNK, (2R,4R)-HNK, (2S,4S)-HNK, (2R,4S)-HNK, and (2S,4R)-HNK hydrochloride were synthesized at the National Center for Advancing Translation Sciences (National Institutes of Health, Rockville, MD, USA) using methods previously described in Morris et al., Org Lett 17:4572-4575 (2017), which is incorporated by reference herein in its entirety. (5R)-methyl-(2R,6R)-HNK was obtained from Organix Inc. (Woburn, MA, USA) or from the National Center for Advancing Translational Sciences (Rockville, MD, USA); synthesis and characterization are described in the Supplemental Information. All compounds were dissolved in 20% (w/v) cyclodextrin (Sigma Aldrich, USA) in saline and administered intraperitoneally (i.p.) in a volume of 7.5 ml/kg.
At 10 min (0.167 h), 30 min (0.5 h), 1 h, 2 h, and 4 h post-treatment, mice were deeply anesthetized (3.5% isoflurane for approximately 2 min). Trunk blood was collected into 1.5-ml polypropylene tubes containing 30 μl of disodium EDTA (0.5 M, pH 8.0) and kept on ice until plasma collection (<30 min). Brains were then removed, flash-frozen in isopentane, and stored at −80° C. until analysis. Blood was centrifuged at 8000×g for 6 min at 4° C. to obtain plasma. Plasma was collected into clean microcentrifuge tubes and stored at −80° C. until analysis.
Ultra-performance liquid chromatography-tandem mass spectrometry (UPLC-MS/MS) methods were developed and optimized to determine the concentration of each HNK in mouse plasma and brain samples following systemic administration. Mass spectrometric analysis was performed on a Waters Xevo TQ-S triple quadrupole instrument using electrospray ionization in positive mode with the selected reaction monitoring. The separation of HNKs from endogenous components was performed on a Waters Acquity UPLC with 0.5 ml/min flow rate and gradient elution. The mobile phase A and B were 0.1% formic acid in water and 0.1% formic acid in acetonitrile, respectively. Plasma and brain concentrations of (2R,6R)-, (2S,6S)-, (2R,4S)-, and (2S,4R)-HNK were determined by hydrophilic interaction liquid chromatography-tandem mass spectrometry (HILIC UPLC-MS/MS) using a BEH amide column (1.7μ, 2.1×50 mm). Plasma and brain concentrations of (2R,6S)-, (2S,6R)-, (2R,5R)- (2S,5S)-, (2R,5S)-, (2S,5R)-, (2R,4R)-, and (2S,4S)-HNK; and (5R)-methyl-(2R,6R)-HNK were determined by reversed phase UPLC-MS/MS based upon a previously described protocol with several modifications using a BEH C18 column ([…], 2.1×50 mm). See Moaddel et al., Talanta 82:1892-1904 (2010), and Zanos et al., Nature 533:481-486 ([…]), both of which are incorporated by reference herein in their entireties.
The gradient for HILIC UPLC method was: 0-0.2 min 98% B; 0.2-1.4 min 98% to 35% B; 1.4-1.8 min 35% to 10% B, 1.9-2.4 min 98% B. The gradient for BEH Cis UPLC method was: 0-0.2 min 1% B; 0.2-1.4 min 1% to 35% B; 1.4-1.8 min 35% to 98% B, 1.8-2.2 min 98% B, 2.3 min 1% B. The analytical run time of the UPLC methods was 2.5 min. The calibration standards and quality control samples were prepared in blank mouse plasma and brain homogenate. Calibration standards ranged from 5.0-5000 ng/ml. […]

NMDARs = conditions: read-out: Ki (binding / inhibition of NMDARs); cited from earlier work

| SMILES | B:P ratio (brain to plasma AUC ratio) ([1]; female mice) | t1/2 Brain ([1]; female mice) [min] | t1/2 Plasma ([1]; female mice) [min] | Brain Concentration over time, sex-dependent difference [1] | Plasma Concentration over time, sex-dependent difference [1] | Plasma Total exposure (AUC), sex-dependent difference [1] | B:P ratio (brain to plasma AUC ratio) ([1]; male mice) | t1/2 Brain ([1]; male mice) [min] | t1/2 Plasma ([1]; male mice) [min] | Ki (NMDARs) [nM] | brain concentration at 4 h post-treatment ([1]; both sexes) | Brain Total exposure (AUC), sex-dependent difference [1] | Tmax in the brain ([1]; male mice) [min] | brain concentration at 4 h post-treatment ([1]; females, but not males) | Tmax in the brain ([1]; female mice) [min] |
| --- | --- | --- | --- | --- | --- | --- | --- | --- | --- | --- | --- | --- | --- | --- | --- |
| N[C@@]1(c2ccccc2Cl)CC[C@@H](O)CC1=O [(2R,5R)-HNK] | 1.4 | 30 | 30 | NS | main effect of sex, M > F | M > F | 1.2 | 24 | 30 | – | – | – | – | – | – |
| CNC1(c2ccccc2Cl)CCCCC1=O (stereo not shown) [ketamine, reference compound] | – | – | – | – | – | – | – | – | – | 250 to 1060 | – | – | – | – | – |
| N[C@]1(c2ccccc2Cl)C[C@H](O)CCC1=O [(2S,4R)-HNK] | 1.0 | 18 | 24 | F > M at 10 min | F > M at 10 min | – | 0.9 | 24 | 30 | – | below LLOQs | – | – | – | – |
| N[C@@]1(c2ccccc2Cl)C[C@H](O)CCC1=O [(2R,4R)-HNK] | 1.2 | 30 | 30 | F > M at 10 min | F > M at 10 min | M > F | 1.3 | 36 | 36 | – | – | M > F | 30 | – | – |
| N[C@@]1(c2ccccc2Cl)C[C@@H](O)CCC1=O [(2R,4S)-HNK] | 1.0 | 18 | 42 | M > F at 10, 30, 60 min | M > F at 10, 30 min | M > F | 1.1 | 30 | 36 | – | – | M > F | – | below LLOQs | – |
| N[C@]1(c2ccccc2Cl)C[C@@H](O)CCC1=O [(2S,4S)-HNK] | 0.9 | 36 | 42 | F > M at 10, 30 min | F > M at 10, 30 min | F > M | 0.7 | 36 | 42 | – | – | F > M | – | – | – |
| N[C@]1(c2ccccc2Cl)CC[C@H](O)CC1=O [(2S,5S)-HNK] | 1.3 | 18 | 36 | NS | NS | – | 1.2 | 18 | 30 | – | below LLOQs | – | – | – | – |
| N[C@]1(c2ccccc2Cl)CC[C@@H](O)CC1=O [(2S,5R)-HNK] | 1.0 | 30 | 30 | NS | M > F at 30, 60 min | M > F | 0.7 | 42 | 36 | – | – | M > F | 30 | – | – |
| N[C@@]1(c2ccccc2Cl)CC[C@H](O)CC1=O [(2R,5S)-HNK] | 1.0 | 30 | 30 | F > M at 10, 30 min | F > M at 10, 30 min | F > M | 0.9 | 30 | 30 | – | – | F > M | – | – | 30 |
